Results on 20 molecules are retold here after patent US7491827B2, “Aryl sulfonamides useful as inhibitors of chemokine receptor activity” (Millennium Pharmaceuticals, Inc., priority 2003, dated 2009).

Structures are written as SMILES.

In the test the target is T1, cloned human CCR8 receptor stably expressed in L1.2 cells (Homo sapiens, UniProt P51685).
T1 construct: expressed in transfected cells
T1 sequence (P51685 whole entry): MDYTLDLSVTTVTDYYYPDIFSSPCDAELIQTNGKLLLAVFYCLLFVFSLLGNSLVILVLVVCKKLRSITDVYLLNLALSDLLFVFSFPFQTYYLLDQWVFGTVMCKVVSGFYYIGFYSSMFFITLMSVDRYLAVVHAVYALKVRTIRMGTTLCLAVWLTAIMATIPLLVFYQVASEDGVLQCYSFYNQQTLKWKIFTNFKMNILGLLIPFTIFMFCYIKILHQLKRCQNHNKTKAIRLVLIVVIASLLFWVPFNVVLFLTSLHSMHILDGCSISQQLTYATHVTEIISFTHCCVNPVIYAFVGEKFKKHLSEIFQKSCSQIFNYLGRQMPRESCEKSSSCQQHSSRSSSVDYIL
The test can be described thus: whole cell binding screen: inhibition of biotinylated human I309 binding to CCR8 (FMAT 8100 HTS). To be noted: L1.2/hCCR8 cells, biotinylated human I-309, 10 point concentration response starting at 10 μM; read-out: Ki of compounds to inhibit I-309 binding to CCR8. The method, boiled down: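 L1.2 murine pre-B cells stably expressing human CCR8 (4.0×10^5 cells/mL) in HBSS/HEPES/fatty-acid-free BSA/azide buffer were mixed with biotinylated human I309 and compounds for 0.5 h, read by FMAT fluorescence. 10-point curves from 10 μM final; percent inhibition normalized to no-inhibitor and 100 nM unlabeled I309 controls.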
Take `COc1ccc(NS(=O)(=O)c2ccc(NC(=O)c3ccc(OC)cc3)c3ccccc23)cc1` [Compound B-2, 4-Methoxy-N-[4-(4-methoxy-phenylsulfamoyl)-naphthalen-1-yl]-benzamide]: the Ki is less than 0.5 µM.
To `Cc1ccccc1C(=O)Nc1ccc(S(=O)(=O)N[C@H]2CCN(C(=O)N(C)C)C[C@H]2C)c2ccccc12` (racemic) [Compound C-29, (±)-cis-3-Methyl-4-[4-(2-methyl-benzoylandno)-naphthalene-1-sulfonylamio]-piperidine-1-carboxylic acid dimethylamide] belongs less than 0.5 µM.
`Cc1ccccc1C(=O)Nc1ccc(S(=O)(=O)NC2CCN(C(=O)N(C)C)C2)c2c1CCCC2` (racemic) [Compound E-32, (±)-3-[4-(2-Methyl-benzoylamino)-5,6,7,8-tetrahydro-naphthalene-1-sulfonylamino]-pyrrolidine-1-carboxylic acid dimethylamide]: the inhibition constant Ki was less than 0.5 µM.
With `CCOC(=O)N1CCC(NS(=O)(=O)c2ccc(CNCc3cccnc3)c3ccccc23)CC1` [Compound G-12, 4-(4-{[(Pyridin-3-ylmethyl)-amino]-methyl}-naphthalene-1-sulfonylamino)-piperidine-1-carboxylic acid ethyl ester], the Ki was less than 0.5 µM.
Under `Cc1ccccc1C(=O)Nc1ccc(S(=O)(=O)N[C@H]2CCNC[C@H]2CC(C)C)c2ccccc12` [Compound J-52] stands less than 0.5 µM; under `CCOC(=O)N1CCC(NS(=O)(=O)c2cccc3c(NC(=O)C4CCCCC4)cccc23)CC1` [Compound H-7, 4-[5-(Cyclohexanecarbonyl-amino)-naphthalene-1-sulfonylamino]-piperidine-1-carboxylic acid ethyl ester], less than 0.5 µM; under `Cc1ccccc1C(=O)Nc1ccc(S(=O)(=O)NC2CCNC2)c2c1CCCC2` (racemic) [Compound E-29, (±)-2-Methyl-N-[4-(pyrrolidin-3-ylsulfamoyl)-5,6,7,8-tetrahydro-naphthalen-1-yl]-benzamide], less than 0.5 µM.
Under `CC[C@@H]1CN(C(=O)[C@H](C)N)CC[C@H]1NS(=O)(=O)c1ccc(NC(=O)c2ccccc2C)c2ccccc12` [Compound J-32, (3R, 4R)-N-{4-[1-(2-(S)-Amino-propionyl)-3-ethyl-piperidin-4-ylsulfamoyl]-naphthalen-1-yl}-2-methyl-benzamide] stands less than 0.5 µM; under `O=C(NC1CCOCC1)c1ccc(S(=O)(=O)NC2CCNCC2)c2ccccc12` [Compound F-18, 4-(Piperidin-4-ylsulfamoyl)-naphthalene-1-carboxylic acid (tetrahydro-pyran-4-yl)-amide], less than 30 µM; under `CCOC(=O)N1CC[C@H](NS(=O)(=O)c2ccc(NC(=O)c3cccnc3C)c3ccccc23)[C@H](C)C1` (racemic) [Compound D-6, (±)-(cis)-3-Methyl-4-{4-[(2-methyl-pyridine-3-carbonyl)-amino]-naphthalene-1-sulfonylamino}-piperidine-1-carboxylic acid ethyl ester], less than 0.5 µM.
To `O=C(Nc1ccc(S(=O)(=O)NC2CCNCC2)c2ccccc12)C1CCCCC1` [Compound D-14, Cyclohexanecarboxylic acid [4-(piperidin-4-ylsulfamoyl)-naphthalen-1-yl]-amide] belongs less than 0.5 µM.
In the case of `CC1CCCCC1NC(=O)c1cccc2c(S(=O)(=O)NC3CCN(C(=O)N(C)C)CC3)cccc12` (racemic) [Compound H-33, (±)-4-[5-(2-Methyl-cyclohexylcarbamoyl)-naphthalene-1-sulfonylamino]-piperidine-1-carboxylic acid dimethylamide], the Ki was less than 0.5 µM.
To `Cc1ccccc1C(=O)Nc1ccc(S(=O)(=O)N[C@H]2CCN(C(=O)C3CCCN3)C[C@H]2C)c2cccnc12` (stereo in doubt) [Compound J-38, (3R, 4S)-2-Methyl-N-{5-[3-methyl-1-((R)pyrrolidine-2-carbonyl)-piperidin-4-ylsulfamoyl]-quinolin-8-yl}-benzamide] belongs less than 0.5 µM; to `O=C(Nc1ccc(S(=O)(=O)NC2CCNCC2)c2ccccc12)C1CCCC1` [Compound D-11, Cyclopentanecarboxylic acid [4-(piperidin-4-ylsulfamoyl)-naphthalen-1-yl]-amide], less than 30 µM.
Under `CCOC(=O)N1CCC(NS(=O)(=O)c2ccc(CNC(=O)c3cccc(C)c3C)c3ccccc23)CC1` [Compound G-2, 4-{4-[(2,3-Dimethyl-benzoylamino)-methyl]-naphthalene-1-sulfonylamino}-piperidine-1-carboxylic acid ethyl ester] stands less than 0.5 µM; under `Cc1ccccc1C(=O)Nc1ccc(S(=O)(=O)NC2CCNCC2(C)C)c2ccccc12` (racemic) [Compound C-11, (±)-N-[4-(3,3-Dimethyl-piperidin-4-ylsulfamoyl)-naphthalen-1-yl]-2-methyl-benzamide], less than 0.5 µM.
To `CCCC(=O)N1CCC(NS(=O)(=O)c2ccc(NC(=O)c3c(F)cccc3F)c3ccccc23)CC1` [Compound C-109, N-[4-(1-Butyryl-piperidin-4-ylsulfamoyl)-naphthalen-1-yl]-2,6-difluoro-benzamide] belongs less than 1 µM; to `Cc1ccccc1C(=O)Nc1ccc(S(=O)(=O)N[C@H]2CCNC[C@@H]2CC(C)C)c2ccccc12` [Compound J-56], less than 5 µM; to `Cc1ccccc1C(=O)Nc1ccc(S(=O)(=O)NC2CCNC2)c2ccccc12` (racemic) [Compound C-48, (±)-2-Methyl-N-[4-(pyrrolidin-3-ylsulfamoyl)-naphthalen-1-yl]-benzamide], less than 0.5 µM.
`CC(C)(C)OC(=O)N1CCC(NS(=O)(=O)c2ccc(NC(=O)c3cccnc3)c3ccccc23)CC1` [Compound B-20, 4-{4-[(Pyridine-3-carbonyl)-amino]-naphthalene-1-sulfonylamino}-piperidine-1-carboxylic acid tert-butyl ester]: the Ki is less than 1 µM.
